The values that follow come from patent US20250161377A1, “COMPOSITION COMPRISING AT LEAST ONE BIFIDOBACTERIUM STRAIN FOR THE TREATMENT OF VITILIGO” (INSTITUT NATIONAL DE LA SANTE ET DE LA RECHERCHE MEDICALE, priority 2022, published 2025).

This assay relates to Primary human keratinocytes (NHK). Description: Mitochondrial ROS in keratinocytes, dihydrorhodamine labeling quantified by FACS. Format: cell-based. Particulars: NHK pretreated one hour, basal untreated = 100. The procedure: Primary human keratinocytes (NHK) were isolated from the foreskin of healthy children and cultured in a serum-free medium supplemented with bovine pituitary extract (250 μg/mL) and EGF (0.25 ng/mL). The NHKs are then seeded onto 6-well plates and incubated in a controlled atmosphere. When the keratinocytes reach 70 to 80% confluence, the cells are pretreated, or not, for one hour with various components. As a positive control, the NHKs are pretreated for one hour with […] (100 μM). The plates are then washed 3 times with a PBS solution before incubating the pretreated NHKs for one hour in the presence of H2O2 (100 μM) or LPS (100 ng/mL). At the end of the incubation, the cells are incubated in a solution of dihydrorhodamine (5 μM) for 30 minutes at 37° C., which allows for the labeling of ROS, particularly mitochondrial ROS. After 3 washes with a PBS solution, the mitochondrial ROS are quantified by FACS.
Background: In flow cytometry, cells or beads pass a laser one at a time.

Take Sinapine: the “Mitochondrial ROS Level (%)” value was found to be 100% (no stress treatment (—), sinapine 100 μM); 100% (then H2O2 (100 μM) one hour, H2O2 alone = 352); 97% (then LPS (100 ng/mL) one hour, LPS alone = 124).
